The record followed here is patent US20240279220A1, “INDOLE COMPOUNDS AND METHODS OF USE” (Genzyme Corporation, priority 2021, published 2024).

The subject of the test is NBD1/3D. The test can be described thus: Aggregation analysis using differential static light scattering (DSLS), NBD1 thermal stability. The format is binding, Human. The conditions noted are these: ΔTagg versus DMSO control; compound at 100 μM. As for the experimental part: Purified recombinant NBD1 was produced using previously described methods (A. Schmidt, J. L. Mendoza, P. J. Thomas (2011) Biochemical and Biophysical Approaches to Probe CFTR Structure (365-376) M. D. Amaral, K. Kunzelmann (eds.), Cystic Fibrosis, Methods in Molecular Biology 741, Springer Science+Business Media). The effect of test compounds on thermal stability of NBD1 was evaluated by differential static light scattering (DSLS) using the Harbinger Stargazer-384 instrument (Epiphyte Three, Toronto, Canada).
Test compounds were dissolved and diluted to desired concentrations in 100% DMSO. The compounds or DMSO controls (100 nL) were stamped into wells of a […] low volume optical plate (Corning Inc., Corning, NY) using the Echo 555 acoustic liquid handler (Labcyte Inc., San Jose, CA).
NBD1 protein was diluted to 0.2 mg/ml in S200 buffer (50 mM Tris-HCl, 150 mM NaCl, 5 mM MgCl2, 2 mM ATP, 2 mM DTT, pH7.6) containing 1% glycerol. 10 uL of protein solution was aliquoted into the 384-well plate harboring the test compounds and 10 uL mineral oil was overlayed onto the protein solution, using the epMotion robotic liquid handler (Eppendorf North America, Hauppauge, NY). After placing into the Stargazer instrument, the plate was heated at 1° C. per minute to 70° C. Images were captured from 25° C. to 70° C. every 0.5° C. At the end of the experiment run, instrument software integrated image files and analyzed data automatically. A […] regression curve was generated for each well, representing the increase in light scattering over time. A temperature of aggregation (Tagg) was calculated based on the inflection point of the curve. To better compare data across experiments the average Tagg for DMSO control wells was calculated and subtracted from values for wells containing compounds to obtain a “ΔTagg” value. These ΔTagg values reflect stabilizing efficacy of the compounds.

Molecules are shown by their SMILES.

`CC(O)(c1cccc(CCC(=O)O)c1)c1cnc(-c2cc(Oc3c(F)cc4[nH]ccc4c3F)ccc2F)[nH]1` (single isomer, unassigned) [Example 216B, 3-(3-(1-(2-(5-((4,6-difluoro-1H-indol-5-yl)oxy)-2-fluorophenyl)-1H-imidazol-5-yl)-1-hydroxyethyl)phenyl) propanoic acid]: the “DSLS NBD1/3D Human Stability delta-T (° C.) @ 100 (μM)” value (shortened to “DSLS NBD1/3D Human Stability delta-T”) was “A (A: T ≥ 10° C.)”.

In the case of `CC(c1nnc(-c2cc(Oc3c(F)cc4[nH]ccc4c3F)ccc2F)[nH]1)c1cccc(CCC(=O)O)c1F` (single isomer, unassigned) [Example 252B, 3-(3-(1-(5-(5-((4,6-difluoro-1H-indol-5-yl)oxy)-2-fluorophenyl)-4H-1,2,4-triazol-3-yl)ethyl)-2-fluorophenyl)propanoic acid], the “DSLS NBD1/3D Human Stability delta-T” value was “C (C: ≤5° C.)”.

`CC(c1cn(C)c(-c2cc(Oc3c(F)cc4[nH]ccc4c3F)ccc2F)n1)c1cccc(CCC(=O)O)c1F` (single isomer, unassigned) [Example 278A, 3-(3-(1-(2-(5-((4,6-difluoro-1H-indol-5-yl)oxy)-2-fluorophenyl)-1-methyl-1H-imidazol-4-yl)ethyl)-2-fluorophenyl)propanoic acid]: the “DSLS NBD1/3D Human Stability delta-T” value is “C (C: ≤5° C.)”.

As to `Cc1c(Oc2cccc(-c3ccn(Cc4cccc(CCC(=O)O)c4)n3)c2)ccc2[nH]ccc12` [Example 1, 3-(3-((3-(3-((4-Methyl-1H-indol-5-yl)oxy)phenyl)-1H-pyrazol-1-yl)methyl)phenyl)propanoic acid], the “DSLS NBD1/3D Human Stability delta-T” value is on record as “B (B: 5-10° C.)”.

`Cc1c(Oc2cccc(-c3ccn(C(C)c4cccc(CCC(=O)O)c4)n3)c2)ccc2[nH]ccc12` (stereo not shown) [Example 2, 3-(3-(1-(3-(3-((4-methyl-1H-indol-5-yl)oxy)phenyl)-1H-pyrazol-1-yl)ethyl)phenyl)propanoic acid]: the “DSLS NBD1/3D Human Stability delta-T” value is given as “B (B: 5-10° C.)”.

Turning to `Cc1c(Oc2cccc(-c3ccnn3C(C)c3cccc(CC(=O)O)c3)c2)ccc2[nH]ccc12` (stereo not shown) [Example 3, 2-(3-(1-(5-(3-((4-methyl-1H-indol-5-yl)oxy)phenyl)-1H-pyrazol-1-yl)ethyl)phenyl)acetic acid], the “DSLS NBD1/3D Human Stability delta-T” value is “C (C: ≤5° C.)”.

For the molecule `Cc1c(Oc2cccc(-c3ccn(C(C)c4cccc(CC(=O)O)c4)n3)c2)ccc2[nH]ccc12` (stereo not shown) [Example 4, 2-(3-(1-(3-(3-((4-methyl-1H-indol-5-yl)oxy)phenyl)-1H-pyrazol-1-yl)ethyl)phenyl)acetic acid], the “DSLS NBD1/3D Human Stability delta-T” value was “B (B: 5-10° C.)”.

Turning to `Cc1c(Oc2cccc(-c3ccn(Cc4cccc(CC(=O)O)c4)n3)c2)ccc2[nH]ccc12` [Example 5, 2-(3-((3-(3-((4-methyl-1H-indol-5-yl)oxy)phenyl)-1H-pyrazol-1-yl)methyl)phenyl)acetic acid], the “DSLS NBD1/3D Human Stability delta-T” value is listed as “B (B: 5-10° C.)”.

Consider `Cc1c(Oc2cccc(-c3ccn(Cc4cccc(CCCO)c4)n3)c2)ccc2[nH]ccc12` [Example 6, 3-(3-((3-(3-((4-Methyl-1H-indol-5-yl)oxy)phenyl)-1H-pyrazol-1-yl)methyl)phenyl)propan-1-ol], for which the “DSLS NBD1/3D Human Stability delta-T” value is listed as “C (C: ≤5° C.)”.

Take `COC(=O)/C=C/c1cccc(Cn2ccc(-c3cccc(Oc4ccc5[nH]ccc5c4CO)c3)n2)c1` [Example 7, Methyl (E)-3-(3-((3-(3-((4-(hydroxymethyl)-1H-indol-5-yl)oxy)phenyl)-1H-pyrazol-1-yl)methyl)phenyl)acrylate]: the “DSLS NBD1/3D Human Stability delta-T” value was “C (C: ≤5° C.)”.

Consider `COC(=O)CCc1cccc(Cn2ccc(-c3cccc(Oc4ccc5[nH]ccc5c4CO)c3)n2)c1` [Example 8, Methyl 3-(3-((3-(3-((4-(hydroxymethyl)-1H-indol-5-yl)oxy)phenyl)-1H-pyrazol-1-yl)methyl)phenyl)propanoate], for which the “DSLS NBD1/3D Human Stability delta-T” value was “C (C: ≤5° C.)”.

Consider `O=C(O)/C=C/c1cccc(Cn2ccc(-c3cccc(Oc4ccc5[nH]ccc5c4CO)c3)n2)c1` [Example 9, (E)-3-(3-((3-(3-((4-(Hydroxymethyl)-1H-indol-5-yl)oxy)phenyl)-1H-pyrazol-1-yl)methyl)phenyl)acrylic acid], for which the “DSLS NBD1/3D Human Stability delta-T” value is listed as “B (B: 5-10° C.)”.

On to `O=C(O)CCc1cccc(Cn2ccc(-c3cccc(Oc4ccc5[nH]ccc5c4CO)c3)n2)c1` [Example 10, 3-(3-((3-(3-((4-(Hydroxymethyl)-1H-indol-5-yl)oxy)phenyl)-1H-pyrazol-1-yl)methyl)phenyl)propanoic acid], for which the “DSLS NBD1/3D Human Stability delta-T” value is “B (B: 5-10° C.)”.

As for `O=C(O)Cc1cccc(Cn2ccc(-c3cccc(Oc4ccc5[nH]ccc5c4CO)c3)n2)c1` [Example 11, 2-(3-((3-(3-((4-(Hydroxymethyl)-1H-indol-5-yl)oxy)phenyl)-1H-pyrazol-1-yl)methyl)phenyl)acetic acid], the “DSLS NBD1/3D Human Stability delta-T” value was “B (B: 5-10° C.)”.

Regarding `COP(=O)(Cc1cccc(Cn2ccc(-c3cccc(Oc4ccc5[nH]ccc5c4CO)c3)n2)c1)OC` [Example 12, dimethyl (3-((3-(3-((4-(hydroxymethyl)-1H-indol-5-yl)oxy)phenyl)-1H-pyrazol-1-yl)methyl)benzyl)phosphonate], the “DSLS NBD1/3D Human Stability delta-T” value is reported as “C (C: ≤5° C.)”.

For `COP(=O)(O)Cc1cccc(Cn2ccc(-c3cccc(Oc4ccc5[nH]ccc5c4CO)c3)n2)c1` [Example 13, methyl hydrogen (3-((3-(3-((4-(hydroxymethyl)-1H-indol-5-yl)oxy)phenyl)-1H-pyrazol-1-yl)methyl)benzyl)phosphonate], the “DSLS NBD1/3D Human Stability delta-T” value is “B (B: 5-10° C.)”.

For `Cc1c(Oc2ccc(F)c(-c3ccn(Cc4cccc(CCC(=O)O)c4)n3)c2)c(F)cc2[nH]ccc12` [Example 14, 3-(3-((3-(2-fluoro-5-((6-fluoro-4-methyl-1H-indol-5-yl)oxy)phenyl)-1H-pyrazol-1-yl)methyl)phenyl)propanoic acid], the “DSLS NBD1/3D Human Stability delta-T” value is “B (B: 5-10° C.)”.

For the molecule `CNC(=O)c1c(Oc2cccc(-c3ccn(Cc4cccc(/C=C/C(=O)O)c4)n3)c2)ccc2[nH]ccc12` [Example 15, (E)-3-(3-((3-(3-((4-(Methylcarbamoyl)-1H-indol-5-yl)oxy)phenyl)-1H-pyrazol-1-yl)methyl)phenyl)acrylic acid], the “DSLS NBD1/3D Human Stability delta-T” value was “B (B: 5-10° C.)”.

For the molecule `CNC(=O)c1c(Oc2cccc(-c3ccn(Cc4cccc(CCC(=O)O)c4)n3)c2)ccc2[nH]ccc12` [Example 16, 3-(3-((3-(3-((4-(Methylcarbamoyl)-1H-indol-5-yl)oxy)phenyl)-1H-pyrazol-1-yl)methyl)phenyl)propanoic acid], the “DSLS NBD1/3D Human Stability delta-T” value is on record as “B (B: 5-10° C.)”.

For `Cc1c(Oc2ccc(F)c(-c3ccn(Cc4cccc(CCC(N)=O)c4)n3)c2)c(F)cc2[nH]ccc12` [Example 17, 3-(3-((3-(2-Fluoro-5-((6-fluoro-4-methyl-1H-indol-5-yl)oxy)phenyl)-1H-pyrazol-1-yl)methyl)phenyl)propanamide], the “DSLS NBD1/3D Human Stability delta-T” value is on record as “C (C: ≤5° C.)”.

On to `Cc1c(Oc2ccc(F)c(-c3ccn(Cc4cnc(CCC(=O)O)s4)n3)c2)c(F)cc2[nH]ccc12` [Example 18, 3-(5-((3-(2-Fluoro-5-((6-fluoro-4-methyl-1H-indol-5-yl)oxy)phenyl)-1H-pyrazol-1-yl)methyl)thiazol-2-yl)propanoic acid], for which the “DSLS NBD1/3D Human Stability delta-T” value is reported as “C (C: ≤5° C.)”.

Regarding `Cc1c(Oc2cccc(-c3nn(Cc4cccc(CCC(=O)O)c4)cc3F)c2)c(F)cc2[nH]ccc12` [Example 19, 3-(3-((4-Fluoro-3-(3-((6-fluoro-4-methyl-1H-indol-5-yl)oxy)phenyl)-1H-pyrazol-1-yl)methyl)phenyl)propanoic acid], the “DSLS NBD1/3D Human Stability delta-T” value is “C (C: ≤5° C.)”.

On to `Cc1c(Oc2cccc(-c3c(F)cnn3Cc3cccc(CCC(=O)O)c3)c2)c(F)cc2[nH]ccc12` [Example 20, 3-(3-((4-Fluoro-5-(3-((6-fluoro-4-methyl-1H-indol-5-yl)oxy)phenyl)-1H-pyrazol-1-yl)methyl)phenyl)propanoic acid], for which the “DSLS NBD1/3D Human Stability delta-T” value is “C (C: ≤5° C.)”.

As to `Cc1c(Oc2cccc(-c3ccc(Cc4cccc(CCC(=O)O)c4)[nH]3)c2)c(F)cc2[nH]ccc12` [Example 21, 3-(3-((5-(3-((6-Fluoro-4-methyl-1H-indol-5-yl)oxy)phenyl)-1H-pyrrol-2-yl)methyl)phenyl)propanoic acid], the “DSLS NBD1/3D Human Stability delta-T” value is given as “C (C: ≤5° C.)”.

Regarding `CS(=O)(=O)c1c(Oc2ccc(F)c(-c3ncc(Cc4cccc(CCC(=O)O)c4)[nH]3)c2)c(F)cc2[nH]ccc12` [Example 22, 3-(3-((2-(2-Fluoro-5-((6-fluoro-4-(methylsulfonyl)-1H-indol-5-yl)oxy)phenyl)-1H-imidazol-5-yl)methyl)phenyl)propanoic acid], the “DSLS NBD1/3D Human Stability delta-T” value is “A (A: T ≥ 10° C.)”.
